Values after ≈ are worked out from the molar mass of the structure shown. Some results are limits rather than exact numbers.

For this data set the following is noted: buffer; pH 7.4; 200.0 µM.
`CCn1c(=O)c2c(nc(SCC(=O)NC3CCCC3)n2C)n(C)c1=O` had a solubility (kinetic) greater than 54.8 µg/mL. The molecule `CC(CCc1ccccc1)NCC(O)COc1ccccc1` (stereo not drawn) had a kinetic solubility of 43.1 µg/mL (≈ 144 µM). For `COc1ccc(CCNC(=O)C2C3CCC(C3)C2C(=O)O)cc1OC` (stereo not drawn) the value was 43.7 µg/mL (≈ 126 µM). Next, `CC(C)(C)OC(=O)N1CCC(CNC(=O)c2cccs2)CC1`: 42.4 µg/mL (≈ 131 µM). In the case of `CSc1sc(C(=O)N2CCc3ccccc32)cc1S(=O)(=O)C(C)C`, the solubility (kinetic) was less than 0.8 µg/mL.

`CN(C)c1ccc(/C=N/OC(=O)Nc2ccccc2)cc1` registered a kinetic solubility of 11 µg/mL (≈ 38.8 µM).

`O=C(CN1CCCCC1)Nc1nc(-c2ccc(F)c(F)c2)cs1` registered a kinetic solubility of 2 µg/mL (≈ 5.93 µM). Against the preceding molecule, the solubility kinetic is about 5.5-fold lower. Next, `COc1ccc(OC)c(S(=O)(=O)NCCCn2ccnc2)c1`: 41.6 µg/mL (≈ 128 µM).

With `Cc1nnc(SCC(=O)O)s1`, the solubility (kinetic) was greater than 28.5 µg/mL. Next, `CN(C)/C(=N\S(=O)(=O)c1ccc(Cl)cc1)c1ccc(F)cc1`: greater than 51.1 µg/mL; `CC(C)(C)C(=O)Nc1ccc(NC(=O)c2ccco2)nc1`: greater than 43.1 µg/mL. As for `CC(C)(C)c1ccc(SCCc2ccccn2)cc1`, the solubility (kinetic) was determined as 1.1 µg/mL (≈ 4.05 µM). Turning to `COc1ccc(NC(=S)N(Cc2cccnc2)Cc2ccco2)cc1`, the kinetic solubility came to 44.8 µg/mL (≈ 127 µM). `Cc1cc(Nc2cccc(Br)c2)c2ccccc2n1` registered a kinetic solubility of 11.9 µg/mL (≈ 38 µM). Next, `Cn1cc(/C=C(\C#N)C(=O)Nc2ccccc2O)c2ccccc21`: less than 0.2 µg/mL; `O=C(COC(=O)C1CC2C=CC1C2)Nc1c(Br)cc([N+](=O)[O-])cc1Br` (stereo not drawn): 57.2 µg/mL (≈ 121 µM). For `Cc1cc(C)nc(Nc2ccc(Cl)cc2C)n1.Cl` the value was 21.2 µg/mL. For `C/C=C/c1ccc(OCC(O)CN2CCCCCCC2)c(OC)c1` (stereo not drawn) the value was 35.2 µg/mL (≈ 106 µM); for `Cc1cc2oc(=O)cc(CN3CCCCC3C)c2cc1C` (stereo not drawn), 17.9 µg/mL (≈ 62.7 µM); for `Cc1ccc(C)c(S(=O)(=O)N2CCC3(CC2)OCCO3)c1`, greater than 46.7 µg/mL. As for `Cc1ccc2cc(NC(=O)CC(CC(=O)O)c3ccccc3)ccc2n1` (stereo not drawn), the kinetic solubility came to 47 µg/mL (≈ 135 µM). Next, `Cc1cc(C(=O)Nc2cccc(NC(=O)c3ccco3)c2)ccc1[N+](=O)[O-]`: 0.5 µg/mL (≈ 1.37 µM); `CC(C(=O)Nc1ccc(C#N)cc1)N1CCN(C(=O)C2CC2)CC1` (stereo not drawn): greater than 49 µg/mL; `Cc1cccc(Cc2ncc(C(F)(F)F)cc2Cl)c1`: less than 0.6 µg/mL. For `O=C(O)C(Cc1ccc(Cl)cc1)Sc1nc2ccccc2[nH]1` (stereo not drawn) the value was 42.3 µg/mL (≈ 127 µM); for `O=C(COC(=O)CCC1CCCC1)NCc1ccc(Cl)cc1`, less than 0.7 µg/mL; for `CCC(=O)Nc1ccc(Cl)c(-c2nc3ncccc3o2)c1`, greater than 45.3 µg/mL. For `CN1C(=O)NC(c2ccc(O)cc2)C2=C1CN(c1ccccc1)C2=O` (stereo not drawn) the value was 7 µg/mL (≈ 20.9 µM); for `CCC(CO)(C(=O)OC1CC2CCC(C1)N2C)c1ccccc1.Cl` (stereo not drawn), greater than 53.1 µg/mL; for `CC(C)CNC(=O)COC(=O)C1c2ccccc2Oc2ccccc21`, 41.4 µg/mL (≈ 122 µM). The molecule `CN(CC(=O)N1CCOCC1)S(=O)(=O)c1ccc2ccccc2c1` showed a solubility (kinetic) greater than 52.3 µg/mL. `Cc1cc(C)cc(C(=O)N2CCN(c3ccccn3)CC2)c1` had a kinetic solubility of 42.7 µg/mL (≈ 145 µM). For `O=C(NC1CCCCCC1)C(=S)N1CCOCC1` the value was 23.1 µg/mL (≈ 85.4 µM); for `CCCN1CCC(NC(=O)C2CC=CCC2C(=O)O)CC1` (stereo not drawn), greater than 44.2 µg/mL. As to `COc1ccc(S(=O)(=O)Nc2cccnc2)c(C)c1C`, the solubility (kinetic) was 19.8 µg/mL (≈ 67.7 µM). Next, `Cc1nn(CC(=O)NC2CCCC2)c(C)c1[N+](=O)[O-]`: greater than 39.9 µg/mL; `O=C(Nc1ccc(F)cc1)Nc1csc2ccccc12`: 0.5 µg/mL (≈ 1.75 µM). For `Cc1nc(C)c(-c2ccnc(/N=C/NO)n2)s1` the value was 34 µg/mL (≈ 136 µM); for `NC(=O)C1=CN(Cc2ccc(Cl)cc2)CCC1C(F)(F)F` (stereo not drawn), greater than 47.8 µg/mL.

The molecule `COCCOC(=O)C1=C(C)NC(=O)NC1c1cccc2ccccc12` (stereo not drawn) gave a solubility (kinetic) of 48.8 µg/mL (≈ 143 µM). Molecule `Cc1ccc(C(C)C)cc1OCC(=O)NCCCn1ccnc1` registered a kinetic solubility greater than 47.3 µg/mL. Molecule `COc1ccc(NC(=O)c2ccc(S(=O)(=O)C(F)F)cc2)c(OC)c1` registered a kinetic solubility of 13.1 µg/mL (≈ 35.3 µM). As to `Cc1ccc(SCCSc2ncccn2)cc1`, the kinetic solubility turned out to be 1.7 µg/mL (≈ 6.48 µM).

`O=C(c1cc2cc([N+](=O)[O-])ccc2s1)N1CCOCC1` displayed a kinetic solubility of 16.2 µg/mL (≈ 55.4 µM). This solubility kinetic lies about 9.5-fold higher than the previous one.

`COc1cccc(NC(=O)N2CCCC(C(=O)NC3CCCCC3C)C2)c1` (stereo not drawn): the kinetic solubility was determined as 6.4 µg/mL (≈ 17.1 µM).

With `CNC(=O)c1cc(C(=O)c2ccc(F)cc2Cl)c[nH]1`, the solubility (kinetic) was 14.1 µg/mL (≈ 50.2 µM). Next, `CCOCCOC(=O)NCCCCCCNC(=O)OCCOCC`: 38.2 µg/mL (≈ 110 µM); `CC(=O)N1CC2([N+](=O)[O-])CN(C(C)=O)CC([N+](=O)[O-])(C1)C2(C)C`: greater than 49.2 µg/mL. In the case of `CC(=O)Nc1ccc(C(=O)COC(=O)Cc2ccsc2)c(F)c1`, the solubility (kinetic) was greater than 50.3 µg/mL.

The molecule `CCN(CC)CCC(O)(c1ccccc1)C1CCCCC1` (stereo not drawn) showed a solubility (kinetic) of 24.3 µg/mL (≈ 83.9 µM). Molecule `CC(=O)N1CCN(C2=NC(=O)/C(=C\c3cccs3)S2)CC1` registered a kinetic solubility of 38.7 µg/mL (≈ 120 µM). `CCN1CCN(C(=O)/C=C/c2cccc(Cl)c2)CC1` yielded a solubility (kinetic) of 40 µg/mL (≈ 143 µM). Next, `COc1ccc(NC(=O)CC(Cc2ccc(Cl)cc2)C(=O)O)cc1` (stereo not drawn): greater than 52.2 µg/mL; `O=C(COc1ncnc2sccc12)NC1CCCCC1`: greater than 43.7 µg/mL.

Molecule `O=C(NCc1ccco1)C1Cc2cc(Cl)ccc2O1` (stereo not drawn) returned a solubility (kinetic) greater than 41.7 µg/mL. Molecule `CCOC(=O)c1cc(C#N)c(SCC(=O)OC)[nH]c1=O` showed a solubility (kinetic) greater than 44.4 µg/mL. Next, `COc1ccccc1C1CCN(C(=O)c2ccc(Cl)cc2)CC1`: 17 µg/mL (≈ 51.5 µM).

Take `O=C(NCCCCc1ccccc1)c1ccc(Br)cc1`: the kinetic solubility is less than 0.7 µg/mL. As for `NS(=O)(=O)c1ccc(CCNC(=O)c2ccncc2)cc1`, the solubility (kinetic) was greater than 45.8 µg/mL.

With `O=C(CCCc1ccccc1)NCc1ccc2c(c1)OCO2`, the kinetic solubility was greater than 44.6 µg/mL.

Molecule `COc1cc2c(cc1OC)CN(c1ncccc1[N+](=O)[O-])CC2` yielded a solubility (kinetic) of 5.6 µg/mL (≈ 17.8 µM). Next, `CCOc1ccccc1NC(=O)CCNC(=O)c1ccc(Cl)cc1`: 5.6 µg/mL (≈ 16.1 µM).

`O=c1[nH]c2ccccc2c2oc(CCl)nc12` came in with a kinetic solubility of 12.5 µg/mL (≈ 53.3 µM). Next, `CC(C)[C@H](NC(=O)N1CCC(Cc2ccccc2)CC1)C(=O)O`: greater than 47.8 µg/mL. For `COc1cc(N)c(Cl)cc1C(=O)OCC(=O)Nc1ccc(N2CCOCC2)cc1` the value was 4.9 µg/mL (≈ 11.7 µM). Take `O=C(Cn1c(CO)nc2ccccc21)NCc1ccc2c(c1)OCO2`: the solubility (kinetic) is greater than 50.9 µg/mL.

Turning to `O=C(NCc1cccnc1)c1ccc(NS(=O)(=O)c2cccc([N+](=O)[O-])c2)cc1`, the kinetic solubility was greater than 61.9 µg/mL. For `CN1CCN(C(=O)c2ccc(F)c(F)c2)CC1`, the solubility (kinetic) is greater than 36 µg/mL. For `COc1c(Cl)cccc1-c1cn2ccccc2n1` the value was 2 µg/mL (≈ 7.73 µM). For `CN(C(=O)COc1cccc(C#N)c1)C1CCS(=O)(=O)C1` (stereo not drawn) the value was greater than 46.3 µg/mL; for `CN(C)CCN1CC(O)=C(c2nc3ccccc3s2)C1=N`, 31.5 µg/mL (≈ 104 µM). The molecule `NC(=O)COC(=O)CCCSc1nc2ccccc2s1` gave a kinetic solubility greater than 46.6 µg/mL. As for `O=C(NC(=S)Nc1ccc2nc[nH]c2c1)c1ccccc1`, the kinetic solubility turned out to be 35 µg/mL (≈ 118 µM).

In the case of `COCCCNC(=S)N1CCC(C(=O)c2ccc(Cl)cc2)CC1`, the kinetic solubility is greater than 53.2 µg/mL. Next, `COc1ccc(-n2c(=S)[nH]c3sc4c(c3c2=O)CCc2ccccc2-4)cc1`: 1.4 µg/mL (≈ 3.57 µM); `COc1cc(C(=O)Oc2cccnc2)cc(OC)c1OC.Cl`: greater than 48.9 µg/mL; `CC(=O)N1CC(=O)Nc2ccc(C)cc2C1c1ccccc1` (stereo not drawn): greater than 44.2 µg/mL. As for `O=C(COC(=O)C1CCC1)NCc1ccc(F)cc1`, the kinetic solubility was greater than 39.8 µg/mL.

As for `CCOC(=O)C1=C(c2ccccc2)NC(=S)NC1c1ccc(Cl)cc1` (stereo not drawn), the kinetic solubility was 5.3 µg/mL (≈ 14.2 µM). For `COc1ccc(C(=O)O)c(OC)n1` the value was greater than 27.5 µg/mL; for `O=C(OCC(=O)N1CCN(S(=O)(=O)c2ccccc2)CC1)C1CCC1`, 54 µg/mL (≈ 147 µM); for `c1cncc(-c2nc(NCC3CCCO3)c3ccccc3n2)c1` (stereo not drawn), greater than 46 µg/mL. Molecule `Cc1nccc(-c2cc(-c3ccc(Cl)cc3Cl)no2)n1` gave a solubility (kinetic) of less than 0.2 µg/mL. For `CC(=O)Nc1cccc(C(=O)OC(C)C(=O)N2CCc3ccccc32)c1` (stereo not drawn) the value was 1.3 µg/mL (≈ 3.69 µM); for `O=C(O)c1ccc(NC(=S)NCc2ccccc2)cc1`, greater than 43 µg/mL.

The molecule `S=C(NCc1ccccc1)N1CCc2ccccc2C1` gave a kinetic solubility of 5.6 µg/mL (≈ 19.8 µM). As for `CCc1cc2c(=O)oc(-c3ccc(Br)cc3)nc2s1`, the kinetic solubility is less than 0.7 µg/mL.

Regarding `O=C(CCCOc1ccccc1)Nc1ccc(Cl)c(S(=O)(=O)N2CCOCC2)c1`, the solubility (kinetic) is 25.7 µg/mL (≈ 58.6 µM).

`CC1CC1C(=O)OCC(=O)NC(=O)NC12CC3CC(CC(C3)C1)C2` (stereo not drawn) returned a solubility (kinetic) of 22.5 µg/mL (≈ 67.3 µM). `CCOC(=O)C(=O)Nc1ncc(Cl)s1` gave a kinetic solubility of 34.2 µg/mL (≈ 146 µM). In turn, `CC1CN(Cc2ccccc2)C(C)CC1O` (stereo not drawn) returned a kinetic solubility greater than 32.9 µg/mL. Next, `O=C(NCCc1ccccc1)C1COc2ccccc2O1` (stereo not drawn): greater than 42.5 µg/mL; `CCOc1ccc(Cc2c(C)[nH]c3ccc(C(=O)O)cc3c2=S)cc1`: 36.2 µg/mL (≈ 102 µM).

`O=C(COc1ccccc1C(=O)O)Nc1cccc2ccccc12`: the kinetic solubility was greater than 48.2 µg/mL.

On to `CCC1C(=O)Nc2ccccc2N1C(=O)COc1ccccc1` (stereo not drawn), for which the kinetic solubility was greater than 46.6 µg/mL. Next, `CCN(CC)c1ccc(C(=O)N/N=C(\C)c2cccnc2)cc1`: greater than 46.6 µg/mL; `COc1ccc2oc(=O)c(C(=O)Nc3cccc(C(C)=O)c3)cc2c1`: less than 0.7 µg/mL; `Cn1c(N)c(Sc2ccccc2[N+](=O)[O-])c(=O)n(C)c1=O`: 41.5 µg/mL (≈ 135 µM). `CC(C)CN1C(=O)N(c2ccc(Cl)cc2)C(C)(O)CC1(C)C` (stereo not drawn) had a solubility (kinetic) of 4.1 µg/mL (≈ 12.6 µM). Compared with the last molecule, the solubility kinetic is about 10-fold lower. Next, `Nc1ccccc1C(=O)NCc1ccco1`: greater than 32.4 µg/mL; `Cc1ccsc1C(=O)OCC(=O)NC1CC1`: greater than 35.9 µg/mL; `Cc1ccc(S(=O)(=O)/N=C(/Nc2c(C)cccc2C)c2ccccc2)cc1`: 7.3 µg/mL (≈ 19.3 µM). For `CN(Cc1cnccn1)Cc1nc(Cc2ccccc2F)no1` the value was greater than 47 µg/mL.

As a reminder, the solubility (kinetic) is solubility judged after dilution from a stock solution rather than from solid.

The values are drawn from PubChem BioAssay AID1996.
